Legend:
[1] = tested on: A431cells (human epidermoid carcinoma); assay: In vitro tumor cell proliferation assay (Cell Titer-Glo luminescent cell viability), A431 cells; type: cell-based; conditions: A-431, 72 h, 72 hours drug exposure, 10% Fetal Bovine Serum, ATP luminescence readout, read-out: IC50 (50% inhibition of cell proliferation)
Source text: (§1) In vitro Tumor Cell Proliferation Assay
(§2) The tumor cell proliferation assay used to test the compounds of the present invention involves a readout called Cell Titer-Glow® Luminescent Cell Viability Assay developed by Promega (Cunningham, B A “A Growing Issue: Cell Proliferation Assays, Modern kits ease quantification of cell growth” The Scientist 2001, 15(13), 26, and Crouch, S P et al., “The use of ATP bioluminescence as a measure of cell proliferation and cytotoxicity” Journal of Immunological Methods 1993, 160, 81–88), that measures inhibition of cell proliferation. Generation of a luminescent signal corresponds to the amount of ATP present, which is directly proportional to the number of metabolically active (proliferating) cells.
(§3) A431cells (human epidermoid carcinoma, ATCC # HTB-20) and BT474 (human breast carcinoma, ATCC # CRL-1555) were plated at a density of 2.5×10^3 cells/well in 96 well black-clear bottom tissue culture plates in RPMI media with 10% Fetal Bovine Serum and incubated at 37° C. Twenty-four hours later, test compounds are added at a final concentration range from as high 100 μM to as low 64 pM depend on the activities of the tested compounds in serial dilutions at a final DMSO concentration of 0.1%. Cells were incubated for 72 hours at 37° C. in complete growth media after addition of the test compound. After 72 hours of drug exposure, the plates were equilibrated to room temperature for approximately 30 min. Then, using a Promega Cell Titer Glo Luminescent® assay kit, lysis buffer containing 100 microliters of the enzyme luciferase and its substrate, luciferin mixture, was added to each well. The plates were mixed for 2 min on orbital shaker to ensure cell lysis and incubated for 10 min at room temperature to stabilize luminescence signal. The samples were read on VICTOR 2 using Luminescence protocol, and analyzed with Analyze5 software to generate IC50 values.

[2] = tested on: BT474 (human breast carcinoma); assay: In vitro tumor cell proliferation assay (Cell Titer-Glo luminescent cell viability), BT474 cells; type: cell-based; conditions: BT-474, 72 hours drug exposure, 10% Fetal Bovine Serum, ATP luminescence readout, read-out: IC50 (50% inhibition of cell proliferation)
Source text: as §1, §2, §3

Row | Structure (SMILES) | IC50 [1] [µM] | IC50 [2] [µM]
1 | O=C(O)C1CCc2c(sc3ncnc(Nc4cccc(Br)c4)c23)C1 (stereo not shown) [Example 1, 4-[(3-bromophenyl)amino]-5,6,7,8-tetrahydro[1]benzothieno[2,3-d]pyrimidine-7-carboxylic acid] | < 50 | < 50
2 | O=C(O)C1CCc2c(sc3ncnc(Nc4ccc(Br)cc4F)c23)C1 (stereo not shown) [Example 2, 4-[(4-bromo-2-fluorophenyl)amino]-5,6,7,8-tetrahydro[1]benzothieno[2,3-d]pyrimidine-7-carboxylic acid] | < 50 | < 5
3 | O=C(C1CCc2c(sc3ncnc(Nc4ccc(F)c(Cl)c4)c23)C1)N1CCCCC1 (stereo not shown) [Example 3, N-(3-chloro-4-fluorophenyl)-7-(1-piperidinylcarbonyl)-5,6,7,8-tetrahydro[1]benzothieno[2,3-d]pyrimidin-4-amine] | < 50 | < 50
4 | Fc1ccc(Nc2ncnc3sc4c(c23)CCC(CN2CCCCC2)C4)cc1Cl (stereo not shown) [Example 4, N-(3-chloro-4-fluorophenyl)-7-(1-piperidinylmethyl)-5,6,7,8-tetrahydro[1]benzothieno[2,3-d]pyrimidin-4-amine] | < 5 | < 5
5 | COCCN(C)C(=O)C1CCc2c(sc3ncnc(Nc4ccc(F)c(Cl)c4)c23)C1 (stereo not shown) [Example 8, 4-[(3-chloro-4-fluorophenyl)amino]-N-(2-methoxyethyl)-N-methyl-5,6,7,8-tetrahydro[1]benzothieno[2,3-d]pyrimidine-7-carboxamide] | < 50 | < 50
6 | Fc1ccc(Nc2ncnc3sc4c(c23)CCC(CN2CCOCC2)C4)cc1Cl (stereo not shown) [Example 12, N-(3-chloro-4-fluorophenyl)-7-(4-morpholinylmethyl)-5,6,7,8-tetrahydro[1]benzothieno[2,3-d]pyrimidin-4-amine] | < 50 | < 50
7 | CN1CCN(CC2CCc3c(sc4ncnc(Nc5ccc(F)c(Cl)c5)c34)C2)CC1 (stereo not shown) [Example 15, N-(3-chloro-4-fluorophenyl)-7-[(4-methyl-1-piperazinyl)methyl]-5,6,7,8-tetrahydro[1]benzothieno[2,3-d]pyrimidin-4-amine] | < 5 | < 5
8 | COCCNC(=O)C1CCc2c(sc3ncnc(Nc4ccc(F)c(Cl)c4)c23)C1 (stereo not shown) [Example 16, 4-[(3-chloro-4-fluorophenyl)amino]-N-(2-methoxyethyl)-5,6,7,8-tetrahydro[1]benzothieno[2,3-d]pyrimidine-7-carboxamide] | < 50 | < 50
9 | O=C(O)C1CCc2c(sc3ncnc(Nc4ccc(F)c(Cl)c4)c23)C1 (stereo not shown) [Example 20, 4-[(3-chloro-4-fluorophenyl)amino]-5,6,7,8-tetrahydro[1]benzothieno[2,3-d]pyrimidine-7-carboxylic acid] | < 50 | < 50
10 | CN1CCN(CC2CCc3c(sc4ncnc(Nc5ccc(Br)cc5F)c34)C2)CC1 (stereo not shown) [Example 22] | < 5 | < 5
11 | COCCNC(=O)C1CCc2c(sc3ncnc(Nc4ccc(Br)cc4F)c23)C1 (stereo not shown) [Example 23, 4-[(4-bromo-2-fluorophenyl)amino]-N-(2-methoxyethyl)-5,6,7,8-tetrahydro[1]benzothieno[2,3-d]pyrimidin-7-carboxamide] | < 50 | < 50
12 | CCOC(=O)C1CCc2c(sc3ncnc(Nc4ccc(F)c(Cl)c4)c23)C1 (stereo not shown) [Example 24, ethyl 4-[(3-chloro-4-fluorophenyl)amino]-5,6,7,8-tetrahydro[1]benzothieno[2,3-d]pyrimidine-7-carboxylate] | < 50 | < 50
13 | CN1CCN(CC2CCc3c(sc4ncnc(Nc5cccc(Br)c5)c34)C2)CC1 (stereo not shown) [Example 26, N-(3-bromophenyl)-7-[(4-methyl-1-piperazinyl)methyl]-5,6,7,8-tetrahydro[1]benzothieno[2,3-d]pyrimidin-4-amine] | < 5 | –
14 | COCCN(C)C(=O)C1CCc2c(sc3ncnc(Nc4cccc(Br)c4)c23)C1 (stereo not shown) [Example 31, 4-[(3-bromophenyl)amino]-N-(2-methoxyethyl)-N-methyl-5,6,7,8-tetrahydro[1]benzothieno[2,3-d]pyrimidine-7-carboxamide] | < 50 | < 50
15 | CCOC(=O)C1CCc2c(sc3ncnc(Nc4ccc(OCc5ccccc5)cc4)c23)C1 (stereo not shown) [Example 32, Ethyl 4-{[4-(benzyloxy)phenyl]amino}-5,6,7,8-tetrahydro[1]benzothieno[2,3-d]pyrimidine-7-carboxylate] | < 50 | < 50
16 | COCCN(C)CC1CCc2c(sc3ncnc(Nc4cccc(Br)c4)c23)C1 (stereo not shown) [Example 36, N-(3-bromophenyl)-7-{[(2-methoxyethyl)(methyl)amino]methyl}-5,6,7,8-tetrahydro[1]benzothieno[2,3-d]pyrimidin-4-amine] | – | < 5
17 | CCOC(=O)C1CCc2c(sc3ncnc(Nc4ccc(C)c(O)c4)c23)C1 (stereo not shown) [Example 39, Ethyl 4-[(3-hydroxy-4-methylphenyl)amino]-5,6,7,8-tetrahydro[1]benzothieno[2,3-d]pyrimidine-7-carboxylate] | < 50 | < 5
18 | CCOC(=O)C1CCc2c(sc3ncnc(Nc4cccc(O)c4)c23)C1 (stereo not shown) [Example 40, Ethyl 4-[(3-hydroxyphenyl)amino]-5,6,7,8-tetrahydro[1]benzothieno[2,3-d]pyrimidine-7-carboxylate] | < 50 | < 50
19 | CCOC(=O)C1CCc2c(sc3ncnc(Nc4ccc(Cl)cc4F)c23)C1 (stereo not shown) [Example 42, Ethyl 4-[(4-chloro-2-fluorophenyl)amino]-5,6,7,8-tetrahydro[1]benzothieno[2,3-d]pyrimidine-7-carboxylate] | < 50 | < 5
20 | CN1CCN(C(=O)C2CCc3c(sc4ncnc(Nc5ccc(OCc6ccccc6)cc5)c34)C2)CC1 (stereo not shown) [Example 43, N-[4-(benzyloxy)phenyl]-7-[(4-methyl-1-piperazinyl)carbonyl]-5,6,7,8-tetrahydro[1]benzothieno[2,3-d]pyrimidin-4-amine] | – | < 5
21 | Brc1cccc(Nc2ncnc3sc4c(c23)CCC(CCN2CCOCC2)C4)c1 (stereo not shown) [Example 45, N-(3-bromophenyl)-7-[2-(4-morpholinyl)ethyl]-5,6,7,8-tetrahydro[1]benzothieno[2,3-d]pyrimidin-4-amine] | < 5 | < 5
22 | Cc1ccc(Nc2ncnc3sc4c(c23)CCC(C(=O)O)C4)cc1O (stereo not shown) [Example 46, 4-[(3-hydroxy-4-methylphenyl)amino]-5,6,7,8tetrahydro[1]benzothieno[2,3-d]pyrimidine-7-carboxylic acid] | < 50 | –
23 | N#Cc1ccc(N2CCN(C(=O)C3CCc4c(sc5ncnc(Nc6cccc(Br)c6)c45)C3)CC2)cc1 (stereo not shown) [Example 48, 4-[4-({4-[(3-bromophenyl)amino]-5,6,7,8-tetrahydro[1]benzothieno[2,3-d]pyrimidin-7-yl}carbonyl)-1-piperazinyl]benzonitrile] | < 50 | < 5
24 | COc1ccc(N2CCN(C(=O)C3CCc4c(sc5ncnc(Nc6cccc(Br)c6)c45)C3)CC2)cc1 (stereo not shown) [Example 49, N-(3-bromophenyl)-7-{[4-(4-methoxyphenyl)-1-piperazinyl]carbonyl}-5,6,7,8-tetrahydro[1]benzothieno[2,3-d]pyrimidin-4-amine] | < 50 | < 50
25 | CS(=O)(=O)CCNC(=O)C1CCc2c(sc3ncnc(Nc4ccc(F)c(Cl)c4)c23)C1 (stereo not shown) [Example 52, 4-[(3-chloro-4-fluorophenyl)amino]-N-[2-(methylsulfonyl)ethyl]-5,6,7,8-tetrahydro[1]benzothieno[2,3-d]pyrimidine-7-carboxamide] | < 50 | < 50
26 | Fc1ccc(Nc2ncnc3sc4c(c23)CCC(CCN2CCOCC2)C4)cc1Cl (stereo not shown) [Example 54, N-(3-chloro-4-fluorophenyl)-7-[2-(4-morpholinyl)ethyl]-5,6,7,8-tetrahydro[1]benzothieno[2,3-d]pyrimidin-4-amine] | < 5 | < 5
27 | CS(=O)(=O)CCNCC1CCc2c(sc3ncnc(Nc4ccc(F)c(Cl)c4)c23)C1 (stereo not shown) [Example 55, N-(3-chloro-4-fluorophenyl)-7-({[2-(methylsulfonyl)ethyl]amino}methyl)-5,6,7,8-tetrahydro[1]benzothieno[2,3-d]pyrimidin-4-amine] | < 5 | < 50
28 | OCCC1CCc2c(sc3ncnc(Nc4ccc(OCc5ccc(F)cc5)c(Cl)c4)c23)C1 (stereo not shown) [Example 155, 2-[4-({3-chloro-4-[(4-fluorobenzyl)oxy]phenyl}amino)-5,6,7,8-tetrahydro[1]benzothieno[2,3-d]pyrimidin-7-yl]ethanol] | – | < 5
29 | CS(=O)(=O)OCCC1CCc2c(sc3ncnc(Nc4ccc(OCc5ccc(F)cc5)c(Cl)c4)c23)C1 (stereo not shown) [Example 156, 2-[4-({3-chloro-4-[(4-fluorobenzyl)oxy]phenyl}amino)-5,6,7,8-tetrahydro[1]benzothieno[2,3-d]pyrimidin-7-yl]ethyl methanesulfonate] | – | < 5
